Entries after “also recorded” stand apart in the source; their conditions may differ.
Experiments:
cAMP dependent kinase = details: to an extent comparable to H7 (20); cited from earlier work
cGMP dependent kinase = details: to an extent comparable to H7 (20); cited from earlier work
[1] = system: myosin light chain kinase; details: to an extent comparable to H7 (20); cited from earlier work
[2] = system: intact endothelium rat aortic rings; assay: KCl-induced contraction of intact rat aortic rings after 16 h incubation with LPS and/or PKC inhibitors; assay type: cell-based; details: for EC50: Rattus norvegicus, 16 h, intact endothelium, read-out: EC50 value for KCl stimulated contraction (EC50 of the agonist KCl)
Description: FIG. 2 is a graph showing contraction to cumulative doses of KCl by rat aortic rings incubated for 16 hr in combinations of control, LPS, H7, and HA1004 treated media. (Panel A) Response by rings incubated in medium only (open circles), medium plus H7 (25 μM, closed circles), medium containing LPS (10 ng/ml, open triangles), and medium containing LPS plus H7 (closed triangles). (Panel B) For clarity in presentation, responses by rings incubated in medium only (open circles) and LPS treated medium (open triangles) are reproduced from Panel A. Additional rings were incubated in medium plus HA1004 (25 μM, closed circles), and medium containing LPS plus HA1004 (closed triangles). Rings were prepared and data is presented as described in FIG. 1. N=6 rats.
(§1) Tissue preparation and incubation. Male Sprague-Dawley rats (250-350 g, Taconic Farms, Germantown, N.Y.) were used. Rat thoracic aortic rings were prepared and incubated as detailed by McKenna (14). In brief, 4 or 6 rings were prepared from each rat. Care was taken during dissection to maintain the patency of the endothelium. Some aortas were de-endothelialized before sectioning into rings by perfusion with phosphate buffered saline (PBS) containing 1% deoxycholate for 30 sec followed by a PBS and bubble rinse for 5 min. Rings were incubated in DME (Dulbecco's Modified Eagle's medium) supplemented with 1% fetal calf serum, 100 μg/ml streptomycin, and 100 U/ml penicillin. During incubation, the rings were exposed to combinations of LPS (10 or 35 ng/ml), H7 (25 μM), HA1004 (N-(2-guanidinoethyl)-5-isoquinolinesulfonamide) (25 μM), sphingosine (20 μM), or their vehicles. […] Rings used in measures of contractile performance were placed individually in Petri dishes containing 1.2 ml DME and were distributed so that tissue isolated from each aorta was allocated to every combination of treatments within an experiment. […] All tissue isolated from an aorta (six rings) was allocated to a single treatment. The media and rings were rotated gently for 16-18 hr in an incubator at 37° C. under a 95% O2 -5% CO2 atmosphere.
(§2) Measurement of aortic ring contraction. After incubation, rings were mounted in tissue baths, equilibrated, and pre-contracted as previously detailed (14). These procedures required approximately 90 min. Rings were maintained in Krebs Ringer Bicarbonate buffer (KRB, 14). Contractions by six or eight rings were measured simultaneously and recorded on multichannel strip chart recorders. […] Other rings were contracted by withdrawing KRB from the tissue baths and adding increasing volumes of a high KCl KRB (120 mM, made by equimolar substitution of KCl for NaCl) to the baths to yield final KCl concentrations of 10 to 80 mM. All rings were blotted and weighed after experiments were completed.
(§3) Statistics. […] Tests for differences between EC50 values were based on log EC50 values (17). EC50 values were then converted to […] means to allow expression as nanomolar concentrations. Examination of differences among four or six treatment means was by randomized blocks analysis of variance; if significant differences were present, then pairs of means were tested by Student-Newman-Keuls a posteriori tests (18). Paired t-tests were used to assess differences between two treatment means. […] Differences with probabilities of 0.05 or less were accepted as significant. All data are expressed as means±SEM.

[3] = system: intact endothelium rat aortic rings; assay: NE-induced contraction of intact rat aortic rings after 16 h incubation with LPS and/or PKC inhibitors; assay type: cell-based; details: for EC50: Rattus norvegicus, 16 h, intact endothelium, read-out: EC50 value for NE stimulated contraction (EC50 of the agonist NE)
Description: FIG. 1 is a graph showing contraction to cumulative doses of NE by rat aortic rings incubated for 16 hr in combinations of control, LPS (endotoxin or lipopolysaccharide), H7, and N-(2-guanidinoethyl)-5-isoquinolinesulfonamide (HA1004; a negative control for H7) treated media. (Panel A) Responses by rings incubated in medium only (open circles), medium plus H7 (25 μM, closed circles), medium containing LPS (10 ng/ml, open triangles), and medium containing LPS plus H7 (closed triangles). (Panel B) For clarity in presentation, responses by rings incubated in medium only (open circles) and LPS treated medium (open triangles) are reproduced from Panel A. Additional rings were incubated in medium plus HA1004 (25 μM, closed circles), and medium containing LPS plus HA1004 (closed triangles). Six rings were prepared from each rat and one ring allocated into each medium formulation. […] The curves are the best fit of the data by nonlinear least squares to a polynomial model. N=8 rats.
as §1, §2, §3

[4] = system: de-endothelialized rat aortic rings; assay: KCl-induced contraction of de-endothelialized rat aortic rings after 16 h incubation with LPS and/or sphingosine; assay type: cell-based; details: for EC50: Rattus norvegicus, 16 h, de-endothelialized, read-out: EC50 value for KCl stimulated contraction (EC50 of the agonist KCl)
Description: (§4) FIG. 3 is a graph showing contraction to cumulative doses of NE and KCl by rat de-endothelialized aortic rings incubated for 16 hr in combinations of control, LPS, and sphingosine treated media. (Panel A) Contraction to NE by rings incubated in medium only (open circles), medium plus sphingosine (20 μM, closed circles), medium containing LPS (35 ng/ml, open triangles), and medium containing LPS plus sphinogosine (closed triangles). (Panel B) Contraction to KCl by rings incubated and denoted with the same symbols as detailed above. Four rings were prepared from each rat and one ring allocated into each medium formulation to evaluate responses to NE. Rings were similarly prepared to determine responses to KCl. Data is presented as in FIG. 1. N=7 rats apiece for assessment of responses to NE and KCl.
as §1, §2
as §3, with “means±SEM. […]” for “means±SEM.”

[5] = stated without test or source; cited from earlier work
[6] = system: de-endothelialized rat aortic rings; assay: NE-induced contraction of de-endothelialized rat aortic rings after 16 h incubation with LPS and/or sphingosine; assay type: cell-based; details: for EC50: Rattus norvegicus, 16 h, de-endothelialized, read-out: EC50 value for NE stimulated contraction (EC50 of the agonist NE)
Description: as §4, §1, §2, §3
The amelioration of LPS-induced vascular contractile dysfunction by inhibition of PKC was further explored in de-endothelialized aortic rings incubated with D-sphingosine. The de-endothelialized rings were incubated with 35 ng/ml LPS instead of 10 ng/ml because such rings are not as sensitive to LPS as tissue with an intact endothelium (14). The effective removal of the endothelium was confirmed by the lack of relaxation to acetylcholine by pre-contracted rings during the conditioning procedure.

PKC = details: literature (19, 42); cited from earlier work
[7] = LPS 10 ng/ml plus inhibitor 25 μM
[8] = LPS-treated media (10 ng/ml), alone or plus inhibitor 25 μM
[9] = control media (no LPS) plus inhibitor 25 μM
[10] = inhibitor 25 μM by itself, no LPS
[11] = LPS-treated media, alone or plus sphingosine 20 μM
[12] = control media (no LPS) plus sphingosine 20 μM
[13] = sphingosine 20 μM plus LPS 35 ng/ml

N=C(N)NCCNS(=O)(=O)c1cccc2cnccc12 [HA1004, N-(2-guanidinoethyl)-5-isoquinolinesulfonamide]
inhibition of cAMP dependent kinase (cAMP dependent kinase): inhibits | inhibition of cGMP dependent kinase (cGMP dependent kinase): inhibits | inhibition of myosin light chain kinase [1]: inhibits | protection of maximal contractile performance to KCl ([2]; LPS 10 ng/ml plus HA1004 25 μM): small but significant protection of maximal contractile performance | protection against LPS-induced contractile dysfunction (KCl) [2, 7]: did not protect the tissue against LPS-induced diminished sensitivity to KCl | EC50 [2, 8]: 49 mM | EC50 [2, 9]: 36 ± 3 mM | maximum contraction to KCl [2, 10]: significant increases in maximum contraction; also recorded: augmented contractile responses to KCl | sensitivity to KCl [2, 10]: no enhancement in sensitivity to KCl | EC50 and Emax (sensitivity and maximum contraction) to NE versus control tissue [3, 7]: significantly depressed sensitivity (Table I) and maximum contraction (FIG. 1B) to NE | EC50 [3, 8]: 0.00276 mM | EC50 [3, 9]: 0.000186 mM | blocking of LPS effects on contraction to NE ([3]; co-incubation, inhibitor 25 μM, LPS 10 ng/ml): ineffective in blocking the effects of LPS on the tissue | contractile function / sensitivity to NE [3, 10]: significant decrease in sensitivity to NE | maximum contraction / ring responses to NE [3, 10]: tended to suppress ring responses to NE; also recorded: apparent, but non-significant, diminution in maximum contraction

CCCCCCCCCCCCC/C=C/[C@@H](O)[C@@H](N)CO [Sphingosine, 4-trans-sphingenine]
EC50 [4, 11]: 27 mM | EC50 [4, 12]: 24 ± 2 mM | contraction to KCl ([4]; sphingosine 20 μM only, no LPS): suppressed contractions to NE and KCl; also recorded: significantly diminished maximum contractions to NE and KCl | protection against LPS suppression of KCl-induced contraction [4, 13]: significantly protected | EC50 for KCl versus control rings ([4]; sphingosine 20 μM, whether or not LPS was present): not significantly different from control rings | solubility in water [5]: not soluble in water | EC50 [6, 11]: 124 nM | EC50 [6, 12]: 21 nM | abrogation/prevention of LPS-induced contractile dysfunction ([6]; de-endothelialized rings, sphingosine 20 μM): clearly abrogated the majority of the deleterious effects of LPS on rat aortic tissue contractile function; also recorded: can be prevented | contraction to NE ([6]; sphingosine 20 μM only, no LPS): suppressed contractions to NE and KCl; also recorded: significantly diminished maximum contractions to NE and KCl | protection against LPS suppression of NE-induced contraction [6, 13]: significantly protected | sensitivity to NE versus control rings [6, 13]: remained less than that of control rings | sensitivity to NE versus rings exposed only to LPS ([6]; sphingosine 20 μM plus LPS 35 ng/ml, P<0.05): more sensitive to NE than rings exposed only to LPS | inhibition of PKC (PKC): capable of inhibiting PKC in vivo and in vitro

From USH1168H, “Inhibitors of protein kinase C activity as protectors against septic shock and reducers of ARDS” (priority 1991, dated 1993)
